The target of the assay is T1, PRKCI (PKC iota) (Homo sapiens, UniProt P41743).
T1 construct: purchased Thermo Fisher Scientific (Life Technologies) SelectScreen
Briefly: SelectScreen Z'LYTE. The format is biochemical. The gist of the method:
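NU5455 was profiled across the SelectScreen Broad panel of kinase activity and binding assays. Z'LYTE reactions such as CSF1R ran at apparent Km ATP, while the Adapta CAMK1 assay used ATP listed as 10. Values are given as percent.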

T1 sequence (P41743 whole entry): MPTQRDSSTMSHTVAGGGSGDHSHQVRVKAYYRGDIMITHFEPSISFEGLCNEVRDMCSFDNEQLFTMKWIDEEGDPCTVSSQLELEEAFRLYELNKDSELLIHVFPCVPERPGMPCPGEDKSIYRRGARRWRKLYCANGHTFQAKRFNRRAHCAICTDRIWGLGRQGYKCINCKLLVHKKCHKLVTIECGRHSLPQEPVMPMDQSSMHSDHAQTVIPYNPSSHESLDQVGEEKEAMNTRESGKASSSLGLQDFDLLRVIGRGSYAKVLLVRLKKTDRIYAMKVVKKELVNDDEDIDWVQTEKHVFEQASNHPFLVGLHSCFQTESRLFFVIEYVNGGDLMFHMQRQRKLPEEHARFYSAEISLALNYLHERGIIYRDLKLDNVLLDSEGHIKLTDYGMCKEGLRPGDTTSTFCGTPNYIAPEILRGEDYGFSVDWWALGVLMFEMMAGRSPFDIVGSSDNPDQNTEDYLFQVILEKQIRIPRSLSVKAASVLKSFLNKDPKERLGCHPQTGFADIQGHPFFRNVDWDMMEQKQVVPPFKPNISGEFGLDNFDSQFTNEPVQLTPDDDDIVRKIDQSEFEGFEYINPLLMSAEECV

By inhibition is commonly meant the change of the read-out against control, counted positive when it falls. Take `CN(C(=O)CN1CCOCC1)c1ccc2sc3c(-c4cccc5c(=O)cc(N6CC7CCC(C6)O7)oc45)cccc3c2c1` [NU5455]: the inhibition at 1 µM is -0.8%.

For the origin of these results see PMC6934184, “Selective DNA-PKcs inhibition extends the therapeutic index of localized radiotherapy and chemotherapy” (The Journal of Clinical Investigation, 2019).
